Test results as given in ChEMBL document CHEMBL1201862, “PubChem BioAssay data set” (2004).
pIC50: −log10 of the molar value. Active and inactive are the calls of the source.

Experiments:
Large T antigen = Large T antigen (Simian virus 40, UniProt P03070); format: functional, Betapolyomavirus macacae;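 note: Confirmatory-stage PubChem screen for compounds that inhibit SV40 T antigen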
[1] = molecular target: Eukaryotic translation initiation factor 4E (Mus musculus, UniProt P63073); experiment: blockers of eIF4G binding by eIF4E – biochemical, TR-FRET, dose response (AID 855); format: functional;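 note: potency for disrupting eIF4E binding to eIF4GI seen as loss of FRET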
[2] = molecular target: T1, Voltage-gated N-type calcium channel alpha-1B subunit/Amyloid beta A4 precursor protein-binding family A member 1 (Homo sapiens, UniProt Q00975+Q02410); format: protein assay
[3] = molecular target: T1, Voltage-gated N-type calcium channel alpha-1B subunit/Amyloid beta A4 precursor protein-binding family A member 1; format: protein assay; remark: listed apart in the source
[4] = viability loss in THP-1 monocytes – THP-1 cells, cytotoxicity control for Vif-APOBEC3G degradation inhibitor project, dose response (AID 1117359); format: functional; conditions: THP-1
[5] = molecular target: T2, Kappa-type opioid receptor (Homo sapiens, UniProt P41145); format: functional
[6] = molecular target: T3, Polyadenylate-binding protein 1 (Homo sapiens, UniProt P11940); experiment: MLLE domain peptide-binding blockers, IC50 – biochemical, fluorescence polarization, FITC-PAM2 peptide, dose response (AID 602259); format: functional; conditions: read-out: IC50_Mean
[7] = molecular target: T3, Polyadenylate-binding protein 1; experiment: MLLE binding blockers, Cy5 peptide tracer – biochemical, fluorescence polarization, Cy5-PAM2 peptide, secondary, miRNA deadenylation inhibitor project, dose response (AID 602260); format: functional; conditions: read-out: IC50_Mean
[8] = molecular target: T4, C-C chemokine receptor type 6 (Homo sapiens, UniProt P51684); experiment: antagonism of CCR6 beta-arrestin recruitment – cell-based, luminescent beta-arrestin readout, dose response (AID 504728); format: functional
T4 sequence (P51684 whole entry): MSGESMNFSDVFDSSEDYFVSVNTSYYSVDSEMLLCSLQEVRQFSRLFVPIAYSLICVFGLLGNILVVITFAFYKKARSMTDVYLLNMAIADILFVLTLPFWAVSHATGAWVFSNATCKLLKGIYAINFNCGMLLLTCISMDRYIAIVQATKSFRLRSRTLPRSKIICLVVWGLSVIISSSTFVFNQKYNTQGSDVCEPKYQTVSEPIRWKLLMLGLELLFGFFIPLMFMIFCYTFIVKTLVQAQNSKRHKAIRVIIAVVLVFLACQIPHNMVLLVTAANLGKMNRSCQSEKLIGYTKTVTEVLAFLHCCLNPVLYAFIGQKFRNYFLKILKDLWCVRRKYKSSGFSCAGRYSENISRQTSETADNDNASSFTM

Beta-galactosidase [9] = molecular target: T5, Beta-galactosidase (Escherichia coli, UniProt Q8VNN2); experiment: detection-enzyme interference by beta-gal modulators – biochemical, E. coli enzyme, set 3, artefact control for CCR6 antagonist project, dose response (AID 504712); format: functional
[10] = molecular target: T2, Kappa-type opioid receptor; format: functional; remark: listed apart in the source
Beta-galactosidase [11] = molecular target: T5, Beta-galactosidase; format: functional
[12] = molecular target: T6, Type-1 angiotensin II receptor (Homo sapiens, UniProt P30556); experiment: agonist activity at AGTR1 – cell-based, uHTS hits, selectivity assay for APJ receptor agonist project, dose response (AID 488865); format: functional;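 note: beta-arrestin recruitment to AT1 measured by enzyme fragment complementation luminescence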
T6 sequence (P30556 whole entry): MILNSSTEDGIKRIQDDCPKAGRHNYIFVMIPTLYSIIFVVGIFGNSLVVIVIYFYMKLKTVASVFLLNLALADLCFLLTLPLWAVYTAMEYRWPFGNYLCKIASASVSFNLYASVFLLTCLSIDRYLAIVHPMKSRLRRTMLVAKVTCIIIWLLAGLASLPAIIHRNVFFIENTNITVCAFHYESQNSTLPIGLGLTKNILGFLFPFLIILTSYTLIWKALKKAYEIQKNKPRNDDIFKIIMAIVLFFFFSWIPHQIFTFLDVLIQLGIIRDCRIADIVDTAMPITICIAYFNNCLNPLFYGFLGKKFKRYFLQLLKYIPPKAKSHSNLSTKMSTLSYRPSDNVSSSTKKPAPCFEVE

[13] = molecular target: T7, DNA repair and recombination protein RAD54-like (Homo sapiens, UniProt Q92698); experiment: RAD54 Holliday junction migration blockers – biochemical, fluorescence, cherry-picked samples, dose series, confirmation (AID 651657); format: functional
T7 sequence (Q92698 whole entry): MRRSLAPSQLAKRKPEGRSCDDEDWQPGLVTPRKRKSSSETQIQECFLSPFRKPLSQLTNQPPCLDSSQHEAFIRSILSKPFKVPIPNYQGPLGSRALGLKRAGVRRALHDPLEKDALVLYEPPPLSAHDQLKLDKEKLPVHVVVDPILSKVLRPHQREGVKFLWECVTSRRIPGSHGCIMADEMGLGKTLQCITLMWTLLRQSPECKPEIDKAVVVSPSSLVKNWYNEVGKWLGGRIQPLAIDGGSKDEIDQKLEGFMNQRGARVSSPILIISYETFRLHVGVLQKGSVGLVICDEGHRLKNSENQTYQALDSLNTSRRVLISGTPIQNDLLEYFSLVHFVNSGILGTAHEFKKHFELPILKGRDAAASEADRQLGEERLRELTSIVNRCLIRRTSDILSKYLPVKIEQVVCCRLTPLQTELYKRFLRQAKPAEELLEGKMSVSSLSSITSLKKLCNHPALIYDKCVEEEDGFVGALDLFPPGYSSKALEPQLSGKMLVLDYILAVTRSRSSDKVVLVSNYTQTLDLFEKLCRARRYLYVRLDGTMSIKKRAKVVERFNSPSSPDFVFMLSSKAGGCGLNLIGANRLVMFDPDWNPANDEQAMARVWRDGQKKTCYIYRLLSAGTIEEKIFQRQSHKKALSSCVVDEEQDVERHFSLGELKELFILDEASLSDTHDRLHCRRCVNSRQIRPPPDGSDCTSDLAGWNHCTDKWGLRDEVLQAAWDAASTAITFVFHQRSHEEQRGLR

Trypsin = Trypsin (Sus scrofa, UniProt P00761); experiment: trypsin protease activity blockade – biochemical, quenched peptide fluorescence, cherry-pick, selectivity assay for Rce1 protease inhibitor project, dose response (AID 488789)
[14] = THP-1 cell cytotoxicity, dose response, cytotoxicity control for non-replicating M. tuberculosis project (AID 489025); format: functional
cells = format: functional
Cytochrome P450 2C9 = Cytochrome P450 2C9 (Homo sapiens, UniProt P11712); conditions: Potency
Integrin alpha-L = Integrin alpha-L (Mus musculus, UniProt P24063); experiment: modulators of CD8 T cell-vesicle binding, dose response, powder samples, mouse 2C CD8+ cells (AID 504565); format: functional
H9c2 = experiment: cells; format: functional, cell-based; conditions: Rattus norvegicus, H9c2, Myocardium;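 note: confirmatory concentration-response retest of ultra-high-throughput screening hits for modulation of myocardial damage; cell death induced by hydrogen peroxide oxidative stress; compound pretreatment for 60 min then peroxide exposure for 2 h; potency is for protecting the cells against peroxide damage rather than for killing them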
[15] = molecular target: T8, Short transient receptor potential channel 4 (Mus musculus, UniProt Q9QUQ5); experiment: calcium entry via TRPC4 opening agents – cell-based, HEK293 TRPC4/mu-opioid, Fluo-4 calcium, dose response (AID 434937); format: functional
T8 sequence (Q9QUQ5 whole entry): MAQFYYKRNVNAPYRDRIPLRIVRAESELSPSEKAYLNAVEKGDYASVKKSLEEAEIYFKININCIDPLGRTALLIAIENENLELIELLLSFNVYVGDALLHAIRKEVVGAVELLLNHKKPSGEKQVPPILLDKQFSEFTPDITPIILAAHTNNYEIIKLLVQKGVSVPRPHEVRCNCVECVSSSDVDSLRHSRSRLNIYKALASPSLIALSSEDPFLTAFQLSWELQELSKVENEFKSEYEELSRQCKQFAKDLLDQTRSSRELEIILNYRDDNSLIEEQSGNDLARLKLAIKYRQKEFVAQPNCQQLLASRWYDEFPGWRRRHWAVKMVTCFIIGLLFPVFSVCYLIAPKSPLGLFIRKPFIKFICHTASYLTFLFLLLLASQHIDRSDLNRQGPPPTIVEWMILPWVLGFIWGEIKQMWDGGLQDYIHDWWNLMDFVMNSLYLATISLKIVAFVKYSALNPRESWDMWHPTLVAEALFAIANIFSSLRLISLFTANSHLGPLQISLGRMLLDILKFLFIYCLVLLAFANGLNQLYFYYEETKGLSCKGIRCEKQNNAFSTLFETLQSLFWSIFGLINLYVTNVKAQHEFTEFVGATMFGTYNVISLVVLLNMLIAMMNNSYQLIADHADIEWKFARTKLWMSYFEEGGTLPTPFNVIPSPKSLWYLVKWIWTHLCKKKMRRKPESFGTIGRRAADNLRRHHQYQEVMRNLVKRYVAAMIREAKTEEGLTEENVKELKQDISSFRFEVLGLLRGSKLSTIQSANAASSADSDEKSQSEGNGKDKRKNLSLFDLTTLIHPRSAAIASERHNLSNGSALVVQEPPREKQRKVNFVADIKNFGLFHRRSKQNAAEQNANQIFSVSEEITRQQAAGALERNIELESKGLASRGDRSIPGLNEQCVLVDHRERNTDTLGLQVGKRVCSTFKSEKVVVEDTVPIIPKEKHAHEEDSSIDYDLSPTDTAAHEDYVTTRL

T5 sequence (Q8VNN2 whole entry): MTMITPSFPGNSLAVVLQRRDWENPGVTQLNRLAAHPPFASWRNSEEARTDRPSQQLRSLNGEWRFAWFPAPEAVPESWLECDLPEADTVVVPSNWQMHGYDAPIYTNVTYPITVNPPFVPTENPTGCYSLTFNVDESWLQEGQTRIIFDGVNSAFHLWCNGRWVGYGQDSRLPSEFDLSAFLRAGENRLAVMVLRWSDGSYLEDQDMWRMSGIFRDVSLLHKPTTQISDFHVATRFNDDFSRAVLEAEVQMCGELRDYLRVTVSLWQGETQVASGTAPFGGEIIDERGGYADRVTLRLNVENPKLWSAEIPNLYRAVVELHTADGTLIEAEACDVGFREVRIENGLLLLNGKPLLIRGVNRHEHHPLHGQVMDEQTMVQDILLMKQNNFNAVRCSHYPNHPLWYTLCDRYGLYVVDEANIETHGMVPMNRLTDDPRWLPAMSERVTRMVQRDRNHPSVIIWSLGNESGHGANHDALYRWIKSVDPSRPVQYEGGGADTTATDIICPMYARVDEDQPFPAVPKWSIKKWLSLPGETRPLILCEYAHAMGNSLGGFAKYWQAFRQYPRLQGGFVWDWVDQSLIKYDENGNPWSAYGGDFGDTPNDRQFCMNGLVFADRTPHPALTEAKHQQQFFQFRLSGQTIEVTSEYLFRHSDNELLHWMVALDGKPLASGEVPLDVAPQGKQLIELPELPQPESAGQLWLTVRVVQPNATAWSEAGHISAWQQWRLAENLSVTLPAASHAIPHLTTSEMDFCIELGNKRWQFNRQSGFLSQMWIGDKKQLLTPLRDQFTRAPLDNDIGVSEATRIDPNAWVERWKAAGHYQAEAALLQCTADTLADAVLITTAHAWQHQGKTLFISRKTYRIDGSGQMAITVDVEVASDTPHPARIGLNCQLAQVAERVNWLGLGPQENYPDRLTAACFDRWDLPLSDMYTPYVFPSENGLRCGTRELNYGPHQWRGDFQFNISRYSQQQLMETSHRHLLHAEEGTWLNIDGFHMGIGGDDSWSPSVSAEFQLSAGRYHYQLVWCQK
T1 sequence (Q00975 whole entry): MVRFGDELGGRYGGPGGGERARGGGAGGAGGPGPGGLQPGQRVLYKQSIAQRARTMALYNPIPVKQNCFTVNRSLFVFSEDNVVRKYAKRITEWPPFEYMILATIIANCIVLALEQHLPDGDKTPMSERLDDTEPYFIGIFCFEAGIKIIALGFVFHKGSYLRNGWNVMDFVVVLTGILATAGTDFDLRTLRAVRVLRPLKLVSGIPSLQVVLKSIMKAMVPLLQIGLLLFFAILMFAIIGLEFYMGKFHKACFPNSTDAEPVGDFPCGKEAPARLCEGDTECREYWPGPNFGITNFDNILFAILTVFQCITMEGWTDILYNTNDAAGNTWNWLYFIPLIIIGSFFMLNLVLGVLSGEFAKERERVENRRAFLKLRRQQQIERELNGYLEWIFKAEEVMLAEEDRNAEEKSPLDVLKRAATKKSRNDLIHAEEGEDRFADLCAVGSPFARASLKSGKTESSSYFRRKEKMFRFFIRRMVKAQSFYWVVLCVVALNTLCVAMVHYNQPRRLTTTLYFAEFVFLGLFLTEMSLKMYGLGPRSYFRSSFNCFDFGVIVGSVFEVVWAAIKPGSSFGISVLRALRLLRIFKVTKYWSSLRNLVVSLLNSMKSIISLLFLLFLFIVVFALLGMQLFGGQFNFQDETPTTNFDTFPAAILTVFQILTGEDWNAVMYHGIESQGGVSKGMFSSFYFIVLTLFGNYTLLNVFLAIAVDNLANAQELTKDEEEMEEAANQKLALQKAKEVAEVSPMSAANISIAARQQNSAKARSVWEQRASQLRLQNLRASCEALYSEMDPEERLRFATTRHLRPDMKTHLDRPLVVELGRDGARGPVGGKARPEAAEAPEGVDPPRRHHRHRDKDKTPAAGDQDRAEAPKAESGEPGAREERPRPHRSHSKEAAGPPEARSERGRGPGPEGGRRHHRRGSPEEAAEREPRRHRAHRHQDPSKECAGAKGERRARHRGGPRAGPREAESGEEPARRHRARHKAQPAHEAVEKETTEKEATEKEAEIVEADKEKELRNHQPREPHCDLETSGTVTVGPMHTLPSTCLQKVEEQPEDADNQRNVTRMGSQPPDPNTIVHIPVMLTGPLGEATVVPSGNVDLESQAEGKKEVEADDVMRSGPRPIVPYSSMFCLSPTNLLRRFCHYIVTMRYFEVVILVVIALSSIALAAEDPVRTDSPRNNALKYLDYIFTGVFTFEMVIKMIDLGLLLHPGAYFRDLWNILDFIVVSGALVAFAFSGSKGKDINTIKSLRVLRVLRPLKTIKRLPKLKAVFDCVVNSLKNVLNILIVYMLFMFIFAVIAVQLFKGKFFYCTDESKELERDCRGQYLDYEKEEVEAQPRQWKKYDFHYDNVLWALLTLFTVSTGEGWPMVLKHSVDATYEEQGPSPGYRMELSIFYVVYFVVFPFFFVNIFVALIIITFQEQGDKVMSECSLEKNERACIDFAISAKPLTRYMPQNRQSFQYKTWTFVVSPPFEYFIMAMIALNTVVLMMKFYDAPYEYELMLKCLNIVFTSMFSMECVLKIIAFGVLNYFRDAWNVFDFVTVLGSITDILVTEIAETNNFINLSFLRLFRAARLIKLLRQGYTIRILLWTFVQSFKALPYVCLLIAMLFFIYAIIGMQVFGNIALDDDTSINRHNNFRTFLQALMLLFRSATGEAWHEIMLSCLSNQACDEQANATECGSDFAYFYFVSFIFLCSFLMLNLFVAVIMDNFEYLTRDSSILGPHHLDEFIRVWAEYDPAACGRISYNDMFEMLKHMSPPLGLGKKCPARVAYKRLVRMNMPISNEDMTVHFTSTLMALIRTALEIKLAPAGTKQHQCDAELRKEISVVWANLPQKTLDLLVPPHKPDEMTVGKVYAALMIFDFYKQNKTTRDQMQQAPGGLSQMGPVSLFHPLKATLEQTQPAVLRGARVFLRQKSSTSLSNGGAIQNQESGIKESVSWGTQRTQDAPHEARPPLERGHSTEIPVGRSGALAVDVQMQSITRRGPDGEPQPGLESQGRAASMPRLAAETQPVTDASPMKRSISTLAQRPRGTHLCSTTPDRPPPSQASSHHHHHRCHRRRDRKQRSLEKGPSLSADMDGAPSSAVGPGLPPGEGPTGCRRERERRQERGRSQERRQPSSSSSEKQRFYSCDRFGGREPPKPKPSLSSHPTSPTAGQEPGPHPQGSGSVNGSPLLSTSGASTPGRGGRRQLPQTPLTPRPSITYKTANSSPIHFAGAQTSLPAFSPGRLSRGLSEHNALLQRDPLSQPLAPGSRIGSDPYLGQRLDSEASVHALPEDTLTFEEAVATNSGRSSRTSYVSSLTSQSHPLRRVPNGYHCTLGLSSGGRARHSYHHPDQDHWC
T1 sequence (Q02410 whole entry): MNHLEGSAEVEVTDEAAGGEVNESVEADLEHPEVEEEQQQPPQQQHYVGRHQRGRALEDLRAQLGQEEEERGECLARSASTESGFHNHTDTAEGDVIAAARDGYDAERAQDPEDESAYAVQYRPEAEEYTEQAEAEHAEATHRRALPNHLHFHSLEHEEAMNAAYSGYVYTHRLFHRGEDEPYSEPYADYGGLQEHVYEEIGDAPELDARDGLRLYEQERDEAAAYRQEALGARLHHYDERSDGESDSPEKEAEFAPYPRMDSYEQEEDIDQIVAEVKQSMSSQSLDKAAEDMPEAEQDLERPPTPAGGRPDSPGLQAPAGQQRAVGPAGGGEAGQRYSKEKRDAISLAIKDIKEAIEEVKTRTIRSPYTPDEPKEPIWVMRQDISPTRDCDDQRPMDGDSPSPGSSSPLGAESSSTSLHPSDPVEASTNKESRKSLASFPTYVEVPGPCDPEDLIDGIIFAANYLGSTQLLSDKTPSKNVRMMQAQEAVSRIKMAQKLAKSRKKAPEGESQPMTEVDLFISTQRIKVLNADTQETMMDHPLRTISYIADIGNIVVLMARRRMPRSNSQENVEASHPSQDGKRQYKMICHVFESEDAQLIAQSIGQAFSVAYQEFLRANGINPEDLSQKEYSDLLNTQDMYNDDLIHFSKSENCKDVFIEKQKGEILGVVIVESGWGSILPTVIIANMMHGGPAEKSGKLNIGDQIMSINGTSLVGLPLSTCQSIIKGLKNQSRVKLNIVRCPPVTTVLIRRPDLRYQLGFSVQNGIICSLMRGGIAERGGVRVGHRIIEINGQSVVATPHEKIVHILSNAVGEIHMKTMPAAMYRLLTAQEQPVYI
T2 sequence (P41145 whole entry, the tested form may be a part): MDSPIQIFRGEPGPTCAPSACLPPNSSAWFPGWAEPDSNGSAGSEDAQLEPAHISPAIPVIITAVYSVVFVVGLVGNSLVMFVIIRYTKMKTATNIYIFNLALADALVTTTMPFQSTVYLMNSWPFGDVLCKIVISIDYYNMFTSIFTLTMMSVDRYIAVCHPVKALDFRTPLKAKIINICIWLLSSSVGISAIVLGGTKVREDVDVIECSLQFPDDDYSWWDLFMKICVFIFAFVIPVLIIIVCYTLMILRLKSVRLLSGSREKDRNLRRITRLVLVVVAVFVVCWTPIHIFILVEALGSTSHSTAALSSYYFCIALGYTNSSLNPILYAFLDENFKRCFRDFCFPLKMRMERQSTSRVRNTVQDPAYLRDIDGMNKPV
Eukaryotic translation initiation factor 4E, sequence (P63073 whole entry): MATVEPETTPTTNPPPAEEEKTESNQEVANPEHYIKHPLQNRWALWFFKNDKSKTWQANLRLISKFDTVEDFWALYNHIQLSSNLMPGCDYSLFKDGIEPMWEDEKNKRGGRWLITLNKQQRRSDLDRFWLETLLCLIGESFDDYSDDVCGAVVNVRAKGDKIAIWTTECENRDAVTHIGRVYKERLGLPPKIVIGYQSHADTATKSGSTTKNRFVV
Trypsin, sequence (P00761 whole entry): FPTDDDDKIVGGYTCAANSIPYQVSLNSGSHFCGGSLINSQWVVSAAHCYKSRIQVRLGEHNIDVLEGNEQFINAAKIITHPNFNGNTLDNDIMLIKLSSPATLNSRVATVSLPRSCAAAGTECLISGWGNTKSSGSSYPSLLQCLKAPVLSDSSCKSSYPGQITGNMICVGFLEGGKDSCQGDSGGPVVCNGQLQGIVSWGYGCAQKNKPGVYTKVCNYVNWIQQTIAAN

SMILES: O=C(CSc1nc2ccccc2n1CCc1ccccc1)c1ccc(O)c(O)c1
- IC50 (Large T antigen): 35.9 µM (active)
- IC50 [1]: 23.7 µM (active)
- IC50 [2]: 9.4 µM (active)
- IC50 [3]: > 50 µM (inactive)
- CC50 [4]: > 40 µM (active)

SMILES: COc1ccc(NC(=S)NC(NC(=O)c2ccccc2Cl)C(Cl)(Cl)Cl)c([N+](=O)[O-])c1 (configuration not stated)
- pIC50 [5]: 5.29
- IC50 [6]: > 66 µM (inactive)
- IC50 [7]: > 66 µM (inactive)
- IC50 [8]: > 66.6 µM (inactive)
- IC50 (Beta-galactosidase [9]): > 66.6 µM (inactive)
- IC50 [10]: 7.41 µM (active)
- EC50 (Beta-galactosidase [11]): > 31.5 µM (inactive)

SMILES: COc1cccc2sc3ccc(NCCC4CCCN4C)cc3c(=O)c12 (configuration not stated)
- EC50 [12]: > 100 µM (inactive)
- AC50 [13]: 22.8 µM (active)

SMILES: Nc1c(C(=O)NCc2ccccc2)sc2nc(N3CCOCC3)c3c(c12)CCCC3
- AC50 (Trypsin): 14.8 µM (active)

SMILES: O=C(CCS(=O)(=O)c1ccccc1)Nc1nnc(-c2ccco2)o1
- CC50 [14]: > 40 µM (active)
- IC50 (cells): 48.6 µM (active)

SMILES: COc1ccc([C@@H]2OC[C@]3(COC(C)=O)[C@H](C)C=C(C)[C@@H]2[C@H]3C)cc1
- AC50 (Cytochrome P450 2C9): 20 µM (inconclusive)

SMILES: O=C(NCC1CCCCC1)c1ccc(Cl)c(S(=O)(=O)N2CCOCC2)c1
- EC50 (Integrin alpha-L): 20.1 µM (active)

SMILES: CCOc1ccc2nc(O)c(CN(CCO)C(c3nnnn3C3CCCCC3)C(C)C)cc2c1 (configuration not stated)
- IC50 (H9c2): > 79 µM (inactive)
- EC50 [12]: > 100 µM (inactive)

SMILES: Cc1ccc(C)c(CN2CCC(CNC(=O)CCc3nnc4ccc(N5CCCCC5)nn34)CC2)c1
- EC50 [15]: 299 nM (active)
